Data on four compounds can be found in patent publication US9567336B2, “Conjugated TLR7 and/or TLR8 and TLR2 agonists” (CAYLA, priority 2012, dated 2017).

One experiment addresses T1, murine TLR2 (Mus musculus, UniProt Q9QUN7).
T1 construct: host or cells: HEK293 (HEK-Blue mTLR2)
The experiment in a line: HEK-Blue mTLR2 NF-κB/AP-1 SEAP reporter cell assay. Format: cell-based. Particulars: HEK-Blue mTLR2 reporter cells, 10 μg/mL to 10 pg/ml, 24 hours, OD at 655 nm; FIG. 4. Here is the method: (§1) Some conjugated compounds of the invention were tested for their ability to activate TLR7 and TLR2 receptor signaling. Cell-based assays were carried out using TLR7 and TLR2 reporter cell lines (InvivoGen). The reporter cell lines are engineered HEK293 cells, a human embryonic kidney cell line (ATCC, CRL-1573) that stably express either murine TLR7 (HEK-Blue™ mTLR7) or human TLR7 (HEK-Blue™ hTLR7) or murine TLR2 (HEK-Blue™ mTLR2) or human TLR2 (HEK-Blue™ hTLR2) with an NF-κB-inducible secreted embryonic alkaline phosphatase (SEAP) as the reporter gene. The SEAP reporter gene is placed under the control of the NF-κB and AP-inducible promoter. Stimulation with the corresponding TLR ligand activates NF-κB and AP-1, which induces the production of SEAP. Detection of SEAP is measured following culturing cells in HEK-Blue™ Detection media (InvivoGen). HEK-Blue™ Detection contains a SEAP substrate, which upon hydrolysis by SEAP produces a colorimetric change allowing for detection of SEAP as the protein is secreted. […] These assays were carried out using RAW-Blue™ Cells (InvivoGen), derived from RAW 264.7 mouse leukemic monocytic macrophage cell line (ATCC, CRL 2278) stably overexpressing a NF-κB/AP-1 inducible SEAP reporter constructs.
(§2) To perform the assay, cells were seeded on 96 well microliter plates at 50,000 or 100,000 cells per well for HEK-Blue™ Cells and RAW-Blue™ Cells respectively, and cultured at 37° C. in the presence of the conjugated compounds. The conjugated compounds were prepared as follows: First, stock solutions of the small molecule conjugated compounds of the invention were prepared in ethanol or water to a concentration of 10 mg/ml. A working dilution of the conjugated TLR7-TLR2 small molecules was made up in water and added to cells at a final range of concentrations from 10 μg/mL to 10 pg/ml. The working dilutions of the conjugated TLR7-TLR2 small molecules as the stated concentrations were directly added to the reporter cell lines and incubated at 37° C. for 24 hours. After 24 hours of incubation, the effect on reporter gene activity was determined by reading the OD at 655 nm using iMark™ Microplate Reader (BIO-RAD).
(§3) The conjugated compounds were tested alone for their ability to specifically activate TLR7 and TLR2, alongside the known TLR7 activators R848 or CL264 (InvivoGen) and the TLR2 agonists Pam2CSK4 or Pam3CSK4 (InvivoGen). The specificity of the TLR activity was determined by use of reporter cell lines to the other TLRs (data not shown). […] The molecules show a tendency to activate mouse TLR7 with greater sensitivity than human TLR7. […] Furthermore, dose-dependent responses of the conjugated compounds indicate significant TLR activities of TLR7 and TLR2 compared to the corresponding controls.

The next experiment deals with T2, human TLR7 (Homo sapiens, UniProt Q9NYK1).
T2 construct: host or cells: HEK293 (HEK-Blue hTLR7)
T2 sequence (Q9NYK1 27-1049): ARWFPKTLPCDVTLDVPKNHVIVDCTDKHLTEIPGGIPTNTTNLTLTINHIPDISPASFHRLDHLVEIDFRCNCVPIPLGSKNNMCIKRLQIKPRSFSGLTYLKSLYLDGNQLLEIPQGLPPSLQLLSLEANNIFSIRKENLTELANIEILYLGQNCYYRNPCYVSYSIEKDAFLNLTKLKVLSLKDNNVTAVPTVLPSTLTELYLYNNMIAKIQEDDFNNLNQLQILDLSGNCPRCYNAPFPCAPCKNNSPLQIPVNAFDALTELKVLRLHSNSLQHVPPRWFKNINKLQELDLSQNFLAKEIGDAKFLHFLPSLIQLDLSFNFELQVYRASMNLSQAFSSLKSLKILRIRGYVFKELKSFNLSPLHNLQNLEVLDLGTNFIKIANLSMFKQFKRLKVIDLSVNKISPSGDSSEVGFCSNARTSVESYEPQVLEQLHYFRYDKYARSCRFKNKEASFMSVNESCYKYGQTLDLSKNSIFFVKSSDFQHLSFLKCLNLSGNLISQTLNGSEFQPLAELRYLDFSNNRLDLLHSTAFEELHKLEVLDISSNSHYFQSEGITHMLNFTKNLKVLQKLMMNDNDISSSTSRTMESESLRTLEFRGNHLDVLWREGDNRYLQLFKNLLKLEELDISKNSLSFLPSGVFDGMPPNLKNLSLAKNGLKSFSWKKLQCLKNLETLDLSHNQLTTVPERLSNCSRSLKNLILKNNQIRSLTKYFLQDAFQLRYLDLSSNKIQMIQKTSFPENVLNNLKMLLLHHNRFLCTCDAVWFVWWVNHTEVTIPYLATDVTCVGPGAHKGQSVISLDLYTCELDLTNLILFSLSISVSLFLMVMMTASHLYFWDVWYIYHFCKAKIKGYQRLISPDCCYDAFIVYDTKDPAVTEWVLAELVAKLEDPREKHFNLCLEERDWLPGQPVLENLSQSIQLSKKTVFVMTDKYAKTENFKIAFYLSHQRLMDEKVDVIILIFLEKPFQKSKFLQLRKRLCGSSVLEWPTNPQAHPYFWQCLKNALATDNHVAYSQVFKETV
Briefly: HEK-Blue hTLR7 NF-κB/AP-1 SEAP reporter cell assay. The format is cell-based. As to conditions: HEK-Blue hTLR7 reporter cells, 10 μg/mL to 10 pg/ml, 24 hours, OD at 655 nm; FIGS. 1A, 1B. As for the experimental part:
as §1, §2, §3

The next experiment concerns the target T3, human TLR2 (Homo sapiens, UniProt O60603).
T3 construct: host or cells: HEK293 (HEK-Blue hTLR2)
The experiment in a line: HEK-Blue hTLR2 NF-κB/AP-1 SEAP reporter cell assay. Format: cell-based. As to conditions: HEK-Blue hTLR2 reporter cells, 10 μg/mL to 10 pg/ml, 24 hours, OD at 655 nm; FIGS. 3A, 3B. As for the experimental part:
as §1, §2, §3

The target in a further experiment is T4, murine TLR7 (Mus musculus, UniProt P58681).
T4 construct: host or cells: HEK293 (HEK-Blue mTLR7)
T4 sequence (P58681 27-1050): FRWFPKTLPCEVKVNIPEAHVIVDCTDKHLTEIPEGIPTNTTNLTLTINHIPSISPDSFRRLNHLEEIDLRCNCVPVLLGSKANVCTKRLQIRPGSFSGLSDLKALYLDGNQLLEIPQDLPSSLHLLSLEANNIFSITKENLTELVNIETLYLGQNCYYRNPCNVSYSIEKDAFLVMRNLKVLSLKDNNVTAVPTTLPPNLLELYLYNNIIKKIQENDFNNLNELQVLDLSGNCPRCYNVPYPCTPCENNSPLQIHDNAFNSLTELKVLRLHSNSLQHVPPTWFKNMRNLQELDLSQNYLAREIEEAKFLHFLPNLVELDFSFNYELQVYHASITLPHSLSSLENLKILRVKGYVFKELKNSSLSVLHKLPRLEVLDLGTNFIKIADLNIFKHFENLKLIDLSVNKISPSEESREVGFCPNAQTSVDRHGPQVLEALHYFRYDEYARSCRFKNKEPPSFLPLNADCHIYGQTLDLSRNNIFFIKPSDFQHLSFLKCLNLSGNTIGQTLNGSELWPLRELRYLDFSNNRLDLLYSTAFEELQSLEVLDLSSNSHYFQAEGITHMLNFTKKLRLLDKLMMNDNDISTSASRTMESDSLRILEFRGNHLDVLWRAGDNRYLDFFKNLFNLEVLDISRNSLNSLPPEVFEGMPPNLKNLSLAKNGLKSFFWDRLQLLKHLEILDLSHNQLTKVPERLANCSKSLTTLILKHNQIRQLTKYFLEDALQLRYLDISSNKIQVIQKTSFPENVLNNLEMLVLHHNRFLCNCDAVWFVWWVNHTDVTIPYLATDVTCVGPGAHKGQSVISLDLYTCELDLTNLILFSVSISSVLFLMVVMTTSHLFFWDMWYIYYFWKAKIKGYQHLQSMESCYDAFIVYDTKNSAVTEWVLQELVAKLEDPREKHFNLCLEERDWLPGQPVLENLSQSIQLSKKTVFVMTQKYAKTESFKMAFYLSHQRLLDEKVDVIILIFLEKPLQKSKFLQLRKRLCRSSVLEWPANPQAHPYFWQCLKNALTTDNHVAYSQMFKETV
Briefly: HEK-Blue mTLR7 NF-κB/AP-1 SEAP reporter cell assay. Format: cell-based. Particulars: HEK-Blue mTLR7 reporter cells, 10 μg/mL to 10 pg/ml, 24 hours, OD at 655 nm; FIGS. 2A, 2B. Here is the method:
as §1, §2, §3

The test system of experiment [1] is NF-κB in RAW-Blue™ Cells (RAW 264.7, endogenous TLR7 and TLR2). Briefly: RAW-Blue Cells NF-κB/AP-1 inducible SEAP reporter assay. The format is cell-based, mouse. As to conditions: murine monocytic macrophage cell line RAW 264.7, 24 hours, OD at 655 nm; FIGS. 5A, 5B. Here is the method:
as §1, §2, §3
For orientation: In a reporter assay the amount or activity of a reporter protein is the signal.

T3 sequence (O60603 21-784): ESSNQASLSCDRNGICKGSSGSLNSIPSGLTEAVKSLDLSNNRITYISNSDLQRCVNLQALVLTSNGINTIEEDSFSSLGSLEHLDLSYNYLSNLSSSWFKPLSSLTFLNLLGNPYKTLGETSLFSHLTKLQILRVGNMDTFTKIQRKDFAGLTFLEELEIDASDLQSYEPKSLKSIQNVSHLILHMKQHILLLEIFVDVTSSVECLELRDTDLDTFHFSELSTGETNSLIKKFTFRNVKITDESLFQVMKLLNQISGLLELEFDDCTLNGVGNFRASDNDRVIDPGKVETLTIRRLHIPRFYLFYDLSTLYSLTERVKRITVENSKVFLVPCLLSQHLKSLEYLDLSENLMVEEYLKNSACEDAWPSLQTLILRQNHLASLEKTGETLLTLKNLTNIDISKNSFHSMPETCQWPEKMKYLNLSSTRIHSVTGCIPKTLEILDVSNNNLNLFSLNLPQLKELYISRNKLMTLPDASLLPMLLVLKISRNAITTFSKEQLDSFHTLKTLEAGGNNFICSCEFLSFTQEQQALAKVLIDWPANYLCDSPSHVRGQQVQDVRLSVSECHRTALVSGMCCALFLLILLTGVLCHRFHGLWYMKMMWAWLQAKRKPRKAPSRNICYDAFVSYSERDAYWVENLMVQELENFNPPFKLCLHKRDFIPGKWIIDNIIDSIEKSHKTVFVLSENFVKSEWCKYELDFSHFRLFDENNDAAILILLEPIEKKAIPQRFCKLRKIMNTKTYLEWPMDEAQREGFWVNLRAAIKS
T1 sequence (Q9QUN7 25-784): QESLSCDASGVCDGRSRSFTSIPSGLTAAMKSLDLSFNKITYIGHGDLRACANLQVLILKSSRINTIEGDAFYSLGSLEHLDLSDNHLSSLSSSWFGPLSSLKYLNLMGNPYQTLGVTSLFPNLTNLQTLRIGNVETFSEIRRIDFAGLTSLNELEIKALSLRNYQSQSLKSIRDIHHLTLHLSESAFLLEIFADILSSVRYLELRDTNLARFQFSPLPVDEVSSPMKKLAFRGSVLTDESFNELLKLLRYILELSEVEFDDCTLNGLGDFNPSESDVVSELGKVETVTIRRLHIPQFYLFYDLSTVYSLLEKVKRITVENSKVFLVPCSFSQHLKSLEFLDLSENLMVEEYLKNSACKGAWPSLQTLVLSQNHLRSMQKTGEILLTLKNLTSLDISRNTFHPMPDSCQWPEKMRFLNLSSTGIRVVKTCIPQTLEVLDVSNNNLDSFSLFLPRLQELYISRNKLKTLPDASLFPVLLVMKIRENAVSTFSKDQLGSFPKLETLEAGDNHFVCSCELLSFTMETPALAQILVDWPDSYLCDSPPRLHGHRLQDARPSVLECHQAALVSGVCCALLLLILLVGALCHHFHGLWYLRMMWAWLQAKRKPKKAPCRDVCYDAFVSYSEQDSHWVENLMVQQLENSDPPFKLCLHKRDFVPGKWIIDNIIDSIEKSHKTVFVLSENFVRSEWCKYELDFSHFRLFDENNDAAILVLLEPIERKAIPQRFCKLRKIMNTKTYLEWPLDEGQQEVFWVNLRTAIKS

On to `CCCCCCCCCCCCCCCC(=O)OCCSC[C@H](N)C(=O)N[C@@H](CO)C(=O)Nc1ccc(Cn2c(O)nc3c(N)nc(NCCCC)nc32)cc1` [CL559, 2-((R)-2-amino-3-((S)-1-(4-((6-amino-2-(butylamino)-8-hydroxy-9H-purin-9-yl)methyl)phenylamino)-3-hydroxy-1-oxopropan-2-ylamino)-3-oxopropylthio)ethyl palmitate], for which the “ability to activate TLR2 receptor (murine TLR2)” value (“ability … (murine TLR2)” below) at murine TLR2 was “activate TLR2 receptor”. On human TLR7, the “ability to activate TLR7 receptors (human TLR7)” value (from here on “ability … (human TLR7)”) is “activate TLR7 receptors”. Also, the “ability to activate TLR2 receptor (human TLR2)” value (shortened to “ability … (human TLR2)”) at human TLR2 is reported as “activate TLR2 receptor”. Besides, on murine TLR7, the “ability to activate TLR7 receptors (murine TLR7)” value (shortened to “ability … (murine TLR7)”) is on record as “activate TLR7 receptors”. In experiment [1], the “induction of NF-κB in RAW-Blue cells” value is “activate NF-κB”.

For the compound `CCCCCCCCCCCCCCCCCC(=O)OCCSC[C@H](N)C(=O)N[C@@H](CO)C(=O)Nc1ccc(Cn2c(O)nc3c(N)nc(NCCCC)nc32)cc1` [CL560, 2-((R)-2-amino-3-((S)-1-(4-((6-amino-2-(butylamino)-8-hydroxy-9H-purin-9-yl)methyl)phenylamino)-3-hydroxy-1-oxopropan-2-ylamino)-3-oxopropylthio)ethyl stearate], at murine TLR2, the “ability … (murine TLR2)” value is recorded as “activate TLR2 receptor”. Moreover, the “ability … (human TLR7)” value on human TLR7 was “activate TLR7 receptors”. In addition, at human TLR2, the “ability … (human TLR2)” value is “activate TLR2 receptor”. The “ability … (murine TLR7)” value at murine TLR7 was “activate TLR7 receptors”. Further, in experiment [1], the “induction of NF-κB in RAW-Blue cells” value is on record as “activate NF-κB”.

For the compound `CCCCCCCCCCCCCCCCCC(=O)OCCSC[C@H](N)C(=O)Nc1ccc(Cn2c(O)nc3c(N)nc(NCCCC)nc32)cc1` [CL557, (R)-2-(2-amino-3-(4-((6-amino-2-(butylamino)-8-hydroxy-9H-purin-9-yl)methyl)phenylamino)-3-oxopropylthio)ethyl stearate], the “ability … (murine TLR2)” value on murine TLR2 was “activate TLR2 receptor”. On human TLR7, the “ability … (human TLR7)” value is given as “activate TLR7 receptors”. Moreover, the “ability … (human TLR2)” value at human TLR2 was “activate TLR2 receptor”. The “ability … (murine TLR7)” value on murine TLR7 is on record as “activate TLR7 receptors”. Moreover, in experiment [1], the “induction of NF-κB in RAW-Blue cells” value was “activate NF-κB”.

On to `CCCCCCCCCCCCCCCC(=O)OCCSC[C@H](N)C(=O)Nc1ccc(Cn2c(O)nc3c(N)nc(NCCCC)nc32)cc1` [CL556, (R)-2-(2-amino-3-(4-((6-amino-2-(butylamino)-8-hydroxy-9H-purin-9-yl)methyl)phenylamino)-3-oxopropylthio)ethyl palmitate], for which the “ability … (murine TLR2)” value at murine TLR2 is “activate TLR2 receptor”. Besides, the “ability … (human TLR7)” value on human TLR7 was “activate TLR7 receptors”. Moreover, at human TLR2, the “ability … (human TLR2)” value is given as “activate TLR2 receptor”. In addition, the “ability … (murine TLR7)” value on murine TLR7 is listed as “activate TLR7 receptors”. In addition, the “induction of NF-κB in RAW-Blue cells” value in experiment [1] is listed as “activate NF-κB”.
